# Assay results taken from patent US20230330111A1, “ACTIVE AGENT COMBINATION FOR TREATMENT OF CANCER” (HELMHOLTZ ZENTRUM MÜNCHEN - DEUTSCHES FORSCHUNGSZENTRUM FÜR …, priority 2020, published 2023).
# “Also recorded” adds a separate entry of the source.
# Experiments:
# U87 cells = test: Cell death / ratio of toxicity and viability in U87 (spheroids); type: cell-based; details: for cell death / toxicity (ratio of toxicity and viability): U87, NEN 1.2 μM, FCCP 2.5 μM, 2-DG 100 mM, Domp, Imi, Desi, Ami 30 μM, Clomi 20 μM; for attenuation of cell death induced by NEN drug combinations: U87 spheroids, ISRIB 1 μM or Cyclodextrin 0.75%
# Description: (§1) HCT116, BxPC3 and U87 cell lines were maintained in Dulbecco's modified Eagle's medium (DMEM) (Gibco) supplemented with 10% fetal bovine serum (FBS; Millipore) and Penicilin/Streptomycine (Life Tehnologies), and cultured at 37° C., 5% CO2 and 95 humidity. For spheroid formation, 10000 cells were plated in ultra-low attachment plates (Fisher Scientific), centrifuged at 850 G for 10 min and incubated for 3 days until treatment, with medium change every 3 days.
# (§2) To determine drug induced toxicity in spheroid cultures, the Promega CellToXGreen and RealTime-Glo™ MT Cell Viability kits were used according to the manufacturers protocols. Briefly, Toxicity and viability dyes were mixed with cell culture medium and added prior to drug treatment. Fluorescence and luminescence were measured over the course of 3 days on a Thermo Fisher Varioskan Lux plate reader.
# (§3) For Caspase 3/7 activity and general cytotoxicity in 2D cell culture the Apo One Homogenous Caspase-3/7 Assay and Multitox Fluor assays were employed respectively, according to the manufacturers protocol. Cells were seeded in 96-wells one day prior to treatment and incubated 24-48 h before assaying.
# BxPC3 cells = test: Cell death / ratio of toxicity and viability in BxPC3 (monolayer); type: cell-based; details: for cell death / toxicity (ratio of toxicity and viability): BxPC3, NEN 1.2 μM, FCCP 2.5 μM, 2-DG 100 mM, Domp, Imi, Desi, Ami 30 μM, Clomi 20 μM
# Description: as §1, §2, §3
# HCT116 cells [1] = test: Caspase 3/7 activity in HCT116; type: cell-based; details: HCT116, 1% serum, NEN 1.2 μM, 18 h
# Source text: For Caspase 3/7 activity and general cytotoxicity in 2D cell culture the Apo One Homogenous Caspase-3/7 Assay and Multitox Fluor assays were employed respectively, according to the manufacturers protocol. […]
# ATF4, CHOP and Gadd34 = test: qPCR of ISR genes; type: cell-based; details: HCT116; for ISR marker gene expression (ATF4, CHOP, Gadd34 mRNA): NEN 1.2 μM, Domp and TCAs 30 μM, Clomi 20 μM
# Source text: RNA was isolated using the Qiagen […] kit following the manufacturers protocol and reverse transcribed using the Quantitect reverse transcription kit (Qiagen). cDNA was amplified using the PowerUp SYBRGreen mastermix (LifeTechnologies), the following primers and an Applied Biosystems Quantstudio 6 cycler. RNA expression data were normalized to the level of beta-actin expression.
# HCT116 cells [2] = test: Cell death / ratio of toxicity and viability in HCT116 (monolayer and spheroids); type: cell-based; details: for cell death / toxicity (ratio of toxicity and viability): HCT116, 2D or 3D spheroids, NEN 1.2 μM, FCCP 2.5 μM, 2-DG 100 mM, Domp, Imi, Desi, Ami 30 μM, Clomi 20 μM; for attenuation of cell death induced by NEN drug combinations: HCT116 monolayer or spheroids, ISRIB 1 μM or Cyclodextrin in medium
# Description: as §1, §2, §3
# [3] = test system: preclinical tumor rodent models; details: single drug; background art; cited from earlier work
# UPP1 = UPP1 expression (immunoblot, qPCR) in HCT116; type: cell-based; details: ISRIB 1 μM with NEN 1.2 μM + Domperidone 30 μM
# Description: Cells were lysed at 4° C. in 100 μl of RIPA buffer (Sigma-Aldrich) containing protease (Roche 11697498001) and phosphatase (Roche 04906837001) inhibitors, and sonicated. Cell extracts were centrifuged 14000×RPM for 5 min 4° C. and the supernatant collected to protein concentration determination with BCA protein assay (Pierce 23225). 10-20 μg of total protein were subjected to SDS-PAGE electrophoresis, and after transfer, membranes were blocked (1 h) and incubated overnight at 4° C. with primary antibodies. After secondary antibody incubation for 1 h at room temperature, signals were visualized by Chemidoc Image System (BioRad) and ImageLab software.
# RNA was isolated using the Qiagen RNAesay kit following the manufacturers protocol and reverse transcribed using the Quantitect reverse transcription kit (Qiagen). cDNA was amplified using the PowerUp SYBRGreen mastermix (LifeTechnologies), the following primers and an Applied Biosystems Quantstudio 6 cycler. RNA expression data were normalized to the level of beta-actin expression.
# HCT116 cells [4] = test: High-throughput phenotypic screen with NEN co-treatment (FDA-approved and GPCR libraries); type: cell-based; details: NEN 1.2 μM, 24 h, FDA-approved drug library and GPCR library
# Description: Plate and liquid handling was performed using a HTS platform system composed of a Sciclone G3 Liquid Handler from PerkinElmer (Waltham, MA, USA) with a Mitsubishi robotic arm (Mitsubishi Electric, RV-3511), a MultiFloTM Dispenser (Biotek Instruments, Bad Friedrichshall, Germany) as well as a CytomatTM Incubator (Thermo Fisher Scientific, Waltham, MA, USA). Cell seeding and assays were performed in black 384-well plates (Greiner bio one 384-well μCLEAR®, BLACK, 781091). The plates were coated with poly-D-lysine (Sigma-Aldrich, St. Louis, MA, USA) for 1 h at room temperature to facilitate a better cell adherence. Cells were seeded in 384-well microplates with a cell number of 12,000 cells/well. The signals of the MultiTox-Fluor assays were detected on the EnVision® Multilabel Reader (PerkinElmer, Waltham, MA, USA). The Prestwick Chemical library contains 1,280 small molecule compounds, which are 100% approved drugs (Food and Drug Administration (FDA), European Medicines Agency (EMA) and other agencies). The purity of the compounds was >90% as reported by the provider of the compounds. The GPCR compound library was purchased from MedChem Express (Cat. No.: HY-[…]). The Z' factor was calculated as described by Zhang and colleagues (Zhang, Chung et al., 1999). For screening of the FDA and GPCR small molecule libraries, HCT116 cells were washed with PBS, trypsinized, and resuspended in cell culture medium. The cell suspension (12,000 cells in 50 μl per well) was dispensed into poly-D-lysine pre-coated 384-well plates (Greiner bio one 384-well pCLEAR®, BLACK, 781091) and incubated at 37° C. with 5% CO2. 24 h after seeding, either 5 μl of NEN (negative control), NEN+Nutlin-3a (positive control), or DMSO alone (solvent control) dissolved in cell culture media were dispensed to the assay plate (NEN, final concentration: 1.2 μM; Nutlin-3a, final concentration: 25 μM). In addition, the same day cells were treated either with compound (1 mM stock solution) dissolved in 100% DMSO or DMSO alone. 0.5 μl of compounds/DMSO were transferred to 55 μl cell culture medium per well to keep the final DMSO volume concentration below 1.0%. The cells were then incubated (37° C.; 5% CO2) for 24 h prior to adding 50 μl MultiTox-Fluor Multiplex Cytotoxicity Assay reagent (Promega). Live-cell fluorescence (excitation=400 nm; emission=505 nm) and dead-cell fluorescence (excitation=485 nm; emission=520 nm) were recorded with an EnVision multilabel reader (PerkinElmer, Waltham, USA). The ratio for live/dead was calculated and normalized to the negative/vehicle control. For hit selection a threshold of lower than 3 standard deviations from the median of the negative/vehicle population was set.
# B42 organoids = test: Paclitaxel sensitization in B42 organoids; type: cell-based, human; details: triple combination with NEN and TCAs vs Paclitaxel alone
# Description: (§4) Primary patient-derived PDAC (Pancreatic ductal adenocarcinoma) three-dimensional (3D) organoids were generated from primary resected human PDAC surgical specimen according to the “Tuveson protocol” described in (Tiriac et al., 2018) and in the methods and extended methods sections of a publication by the group of Hans Clevers (Driehuis et al., 2019). Generation and culturing of primary-dispersed human PDAC cells was performed as recently described (Biederstadt et al., 2020). Written informed consent from the patients for research purposes was obtained prior to the investigation.
# as §2
# (§5) To investigate the efficacy of targeting the described metabolic stress response in a more heterogeneous cancer cell population, which better reflect the tumor biology, cultures of primary tumor-derived organoids from two patients with pancreatic cancer have been used. Organoids were seeded at a density of 1000 cells per well and let grow for 7 days prior to treatment.
# PDO-48 organoids = test: Paclitaxel sensitization in PDO-48 organoids; type: cell-based, human; details: triple combination with NEN and TCAs vs Paclitaxel alone
# Description: as §4, §2, §5
# [5] = compared with its analogue Trimipramine; cited from earlier work
# [6] = test system: glioblastoma and small-cell lung cancer (SCLC); details: cited from earlier work
compound,measurement,setting,value
"NCCO.O=C(Nc1ccc([N+](=O)[O-])cc1Cl)c1cc(Cl)ccc1O [NEN, niclosamide ethanolamine]",cell death / toxicity (ratio of toxicity and viability),U87 cells,did not cause significant toxicity
same,cell death / toxicity (ratio of toxicity and viability),BxPC3 cells,did not cause significant toxicity
same,cell death (caspase activity) under low serum,HCT116 cells [1],caused significant cell death
same,"ISR marker gene expression (ATF4, CHOP, Gadd34 mRNA)","ATF4, CHOP and Gadd34",modest increase in ISR marker gene expression
same,cell death / toxicity (ratio of toxicity and viability),HCT116 cells [2],did not cause significant toxicity
same,anti-tumor efficacy,[3],anti-tumor efficacy in a variety of preclinical tumor rodent models
O=C(COc1ccc(Cl)cc1)NC1CCC(NC(=O)COc2ccc(Cl)cc2)CC1 (centres unmarked) [ISRIB],attenuation of cell death induced by NEN drug combinations,U87 cells,attenuated cell death induction
same,attenuation of cell death induced by NEN drug combinations,"BxPC3 cells; BxPC3 monolayer, 48 h",attenuated cell death induction
same,"effect on drug-induced CHOP, Gadd34 and ATF4 expression","ATF4, CHOP and Gadd34; ISRIB 1 μM with NEN 1.2 μM + Domperidone 30 μM","prevented the induction of CHOP and of its target gene Gadd34, but did not decrease ATF4 expression significantly"
same,attenuation of cell death induced by NEN drug combinations,HCT116 cells [2],attenuated cell death induction
same,effect on drug-induced UPP1 upregulation,UPP1,prevented the drug-induced UPP1 upregulation
CC(CN(C)C)CN1c2ccccc2CCc2ccccc21 (centres unmarked) [Trimipramine],hit in screen (cell death in NEN co-treated but not vehicle treated cells),HCT116 cells [4],represented with several compounds in both screens
CN(C)CCCN1c2ccccc2CCc2ccc(Cl)cc21 [Clomipramine],hit in screen (cell death in NEN co-treated but not vehicle treated cells),HCT116 cells [4],represented with several compounds in both screens
CC(=O)O[C@H]1C(=O)[C@@]2(C)[C@H]([C@H](OC(=O)c3ccccc3)[C@]3(O)C[C@H](OC(=O)[C@H](O)[C@@H](NC(=O)c4ccccc4)c4ccccc4)C(C)=C1C3(C)C)[C@]1(OC(C)=O)CO[C@@H]1C[C@@H]2O [Paclitaxel],increase in effectiveness in inducing organoid cell death,B42 organoids,up to 100 times
same,increase in effectiveness in inducing organoid cell death,PDO-48 organoids,approximately ten
"O=CC[C@@H](O)[C@H](O)[C@H](O)CO [2-DG, 2-deoxyglucose]",cell death / toxicity (ratio of toxicity and viability),U87 cells,but not 2-DG alone caused significant cell death
same,cell death / toxicity (ratio of toxicity and viability),BxPC3 cells,but not 2-DG alone caused significant cell death
same,cell death / toxicity (ratio of toxicity and viability),HCT116 cells [2],but not 2-DG alone caused significant cell death
O=C(Nc1ccc([N+](=O)[O-])cc1Cl)c1cc(Cl)ccc1O [niclosamide],anti-tumor efficacy,[3],anti-tumor efficacy in a variety of preclinical tumor rodent models; also recorded: only minor therapeutic efficacy
CNCCCN1c2ccccc2CCc2ccccc21 [Desipramine],hit in screen (cell death in NEN co-treated but not vehicle treated cells),HCT116 cells [4],represented with several compounds in both screens
Cyclodextrin [CD],attenuation of cell death induced by NEN drug combinations,U87 cells,partially prevented cell death induction
same,attenuation of cell death induced by NEN drug combinations,HCT116 cells [2],CD concentration-dependent suppression of cell death
CN(C)CCCN1c2ccccc2CCc2ccccc21 [Imipramine],water solubility,[5],higher water solubility
same,efficacy in preclinical mouse models,[6],proven efficacy against glioblastoma and small-cell lung cancer (SCLC) in preclinical mouse models
O=c1[nH]c2ccccc2n1CCCN1CCC(n2c(=O)[nH]c3cc(Cl)ccc32)CC1 [Domperidone],hit in screen (cell death in NEN co-treated but not vehicle treated cells),HCT116 cells [4],scored as hit in both screens; also recorded: one of the top hits in both screens
same,"ISR marker gene expression (ATF4, CHOP, Gadd34 mRNA)","ATF4, CHOP and Gadd34",modest increase in ISR marker gene expression
"N#CC(C#N)=NNc1ccc(OC(F)(F)F)cc1 [FCCP, Carbonyl cyanide-p-trifluoromethoxyphenylhydrazone]",cell death / toxicity (ratio of toxicity and viability),U87 cells,did not cause significant toxicity
same,cell death / toxicity (ratio of toxicity and viability),BxPC3 cells,did not cause significant toxicity
same,cell death / toxicity (ratio of toxicity and viability),HCT116 cells [2],did not cause significant toxicity
